These results are taken from ChEMBL document CHEMBL4507319 (2021).

Experiment [1] has as its target Serine/threonine-protein kinase PLK3 (Homo sapiens) (UniProt Q9H4B4). Nature of the experiment: Plk3(h) Eurofins kinase panel. The note with it: Compound concentration 1.0 uM.
Experiment [2] addresses eIF-2-alpha kinase GCN2 (Homo sapiens) (UniProt Q9P2K8). Put plainly: GCN2(h) Eurofins kinase panel. The note with it: Compound concentration 1.0 uM.
Experiment [3] addresses CDK3/cyclin E (Homo sapiens) (UniProt P24864+O96020+Q00526). Put plainly: CDK3/cyclinE(h) Eurofins kinase panel. It counts as protein-complex assay. The following applies: Compound concentration 1.0 uM.
For experiment [4], the system named is OCI-Ly7. Nature of the experiment: Oci-Ly-7 cell line Proliferation assay. In kind it is functional, Homo sapiens. The note with it: time 3 day.
Experiment [5] addresses T1, Tyrosine-protein kinase ITK/TSK (Homo sapiens) (UniProt Q08881).
T1 sequence (whole entry): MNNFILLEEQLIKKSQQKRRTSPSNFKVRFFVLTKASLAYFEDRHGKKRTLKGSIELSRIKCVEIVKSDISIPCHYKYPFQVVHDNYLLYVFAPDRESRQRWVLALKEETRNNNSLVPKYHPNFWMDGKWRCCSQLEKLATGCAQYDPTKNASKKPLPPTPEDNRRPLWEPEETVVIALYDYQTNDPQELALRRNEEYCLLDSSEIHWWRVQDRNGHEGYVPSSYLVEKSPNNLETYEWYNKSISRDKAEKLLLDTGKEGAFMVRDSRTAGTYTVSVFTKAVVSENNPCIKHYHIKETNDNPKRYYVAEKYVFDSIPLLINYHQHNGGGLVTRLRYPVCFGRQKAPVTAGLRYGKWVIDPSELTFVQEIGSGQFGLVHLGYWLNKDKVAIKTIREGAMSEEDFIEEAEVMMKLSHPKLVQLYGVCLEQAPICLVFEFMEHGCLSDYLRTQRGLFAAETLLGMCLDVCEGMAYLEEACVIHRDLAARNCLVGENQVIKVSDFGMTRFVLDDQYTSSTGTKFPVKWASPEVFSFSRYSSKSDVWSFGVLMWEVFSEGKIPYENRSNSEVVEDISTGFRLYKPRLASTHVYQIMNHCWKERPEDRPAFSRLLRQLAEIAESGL
Put plainly: Itk(h) Eurofins kinase panel. The note with it: Compound concentration 1.0 uM.

For experiment [6], the system named is LNCaP. Put plainly: LNCaP cell line Proliferation assay. It counts as functional, Homo sapiens. The following applies: time 6 day.
The target of experiment [7] is Ephrin type-A receptor 4 (Homo sapiens) (UniProt P54764). Nature of the experiment: EphA4(h) Eurofins kinase panel. The following applies: Compound concentration 1.0 uM.
Sequence of Ephrin type-A receptor 4 (Homo sapiens) (P54764 whole entry): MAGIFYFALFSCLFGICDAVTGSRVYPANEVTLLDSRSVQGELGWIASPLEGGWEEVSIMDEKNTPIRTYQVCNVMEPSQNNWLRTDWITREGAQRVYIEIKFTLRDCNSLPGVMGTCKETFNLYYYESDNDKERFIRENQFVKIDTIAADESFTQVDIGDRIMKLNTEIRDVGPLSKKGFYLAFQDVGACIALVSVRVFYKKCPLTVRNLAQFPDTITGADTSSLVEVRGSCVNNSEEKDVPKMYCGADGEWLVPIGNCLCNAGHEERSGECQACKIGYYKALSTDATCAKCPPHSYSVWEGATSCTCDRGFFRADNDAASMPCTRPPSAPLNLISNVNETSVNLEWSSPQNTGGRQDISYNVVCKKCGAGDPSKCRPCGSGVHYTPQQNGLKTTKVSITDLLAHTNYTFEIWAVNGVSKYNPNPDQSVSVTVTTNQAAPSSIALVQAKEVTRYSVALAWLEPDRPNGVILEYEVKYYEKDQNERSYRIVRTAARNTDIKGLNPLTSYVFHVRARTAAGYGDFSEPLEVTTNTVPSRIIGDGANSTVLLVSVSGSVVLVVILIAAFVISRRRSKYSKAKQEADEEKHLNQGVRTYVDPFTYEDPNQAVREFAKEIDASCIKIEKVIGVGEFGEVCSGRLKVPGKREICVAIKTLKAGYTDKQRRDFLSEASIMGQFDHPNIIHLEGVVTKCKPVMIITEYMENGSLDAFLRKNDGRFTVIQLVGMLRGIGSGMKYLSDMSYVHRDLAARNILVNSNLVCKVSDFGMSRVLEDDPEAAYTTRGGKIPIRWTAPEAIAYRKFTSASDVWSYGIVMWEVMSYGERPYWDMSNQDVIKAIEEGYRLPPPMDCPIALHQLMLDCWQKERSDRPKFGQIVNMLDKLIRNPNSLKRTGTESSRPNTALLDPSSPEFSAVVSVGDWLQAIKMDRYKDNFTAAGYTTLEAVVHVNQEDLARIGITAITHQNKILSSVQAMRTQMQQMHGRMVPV
Experiment [8] concerns the target Ribosomal protein S6 kinase beta-1 (Homo sapiens) (UniProt P23443). Nature of the experiment: p70S6K(h) Eurofins kinase panel. The note with it: Compound concentration 1.0 uM.
Experiment [9] has as its target T2, Myotonin-protein kinase (Homo sapiens) (UniProt Q09013).
T2 sequence (whole entry): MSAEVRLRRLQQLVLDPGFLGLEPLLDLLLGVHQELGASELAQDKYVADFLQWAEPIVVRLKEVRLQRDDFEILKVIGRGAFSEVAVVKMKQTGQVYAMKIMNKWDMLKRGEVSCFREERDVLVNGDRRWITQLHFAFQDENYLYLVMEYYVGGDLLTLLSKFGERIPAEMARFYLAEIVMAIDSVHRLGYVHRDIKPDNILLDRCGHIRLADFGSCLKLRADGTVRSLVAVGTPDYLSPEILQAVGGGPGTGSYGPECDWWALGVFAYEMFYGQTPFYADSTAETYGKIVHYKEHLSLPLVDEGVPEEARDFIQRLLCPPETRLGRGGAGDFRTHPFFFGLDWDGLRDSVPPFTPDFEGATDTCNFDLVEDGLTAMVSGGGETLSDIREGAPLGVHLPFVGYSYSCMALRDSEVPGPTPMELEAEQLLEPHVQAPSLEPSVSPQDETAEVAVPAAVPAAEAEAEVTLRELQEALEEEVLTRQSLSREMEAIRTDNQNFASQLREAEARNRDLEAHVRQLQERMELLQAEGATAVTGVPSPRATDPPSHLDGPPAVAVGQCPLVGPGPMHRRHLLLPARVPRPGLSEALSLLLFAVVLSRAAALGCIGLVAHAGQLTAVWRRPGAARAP
Put plainly: DMPK(h) Eurofins kinase panel. The note with it: Compound concentration 1.0 uM.

The target of experiment [10] is D(1A) dopamine receptor (Homo sapiens) (UniProt P21728). The following applies: Compound concentration 10.0 uM.
Sequence of D(1A) dopamine receptor (Homo sapiens) (P21728 whole entry): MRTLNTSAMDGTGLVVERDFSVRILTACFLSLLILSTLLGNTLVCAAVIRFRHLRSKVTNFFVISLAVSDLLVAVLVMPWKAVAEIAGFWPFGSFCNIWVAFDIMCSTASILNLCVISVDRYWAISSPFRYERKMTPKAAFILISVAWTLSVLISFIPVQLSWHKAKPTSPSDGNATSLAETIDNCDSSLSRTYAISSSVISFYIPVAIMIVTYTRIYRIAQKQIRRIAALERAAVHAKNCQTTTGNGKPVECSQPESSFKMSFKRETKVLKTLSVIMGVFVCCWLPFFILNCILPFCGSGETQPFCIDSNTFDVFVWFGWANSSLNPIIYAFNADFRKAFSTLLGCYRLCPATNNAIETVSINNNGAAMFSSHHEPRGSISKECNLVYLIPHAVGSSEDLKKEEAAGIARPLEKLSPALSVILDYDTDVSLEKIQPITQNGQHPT
Experiment [11] addresses MAP/microtubule affinity-regulating kinase 3 (Homo sapiens) (UniProt P27448). Nature of the experiment: MARK3(h) Eurofins kinase panel. The following applies: Compound concentration 1.0 uM.
Experiment [12] concerns the target Mitogen-activated protein kinase 14 (Homo sapiens) (UniProt Q16539). Put plainly: SAPK2a(h) Eurofins kinase panel. The note with it: Compound concentration 1.0 uM.
For experiment [13], the target named is T3, Serine/threonine-protein kinase Nek11 (Homo sapiens) (UniProt Q8NG66).
T3 sequence (whole entry): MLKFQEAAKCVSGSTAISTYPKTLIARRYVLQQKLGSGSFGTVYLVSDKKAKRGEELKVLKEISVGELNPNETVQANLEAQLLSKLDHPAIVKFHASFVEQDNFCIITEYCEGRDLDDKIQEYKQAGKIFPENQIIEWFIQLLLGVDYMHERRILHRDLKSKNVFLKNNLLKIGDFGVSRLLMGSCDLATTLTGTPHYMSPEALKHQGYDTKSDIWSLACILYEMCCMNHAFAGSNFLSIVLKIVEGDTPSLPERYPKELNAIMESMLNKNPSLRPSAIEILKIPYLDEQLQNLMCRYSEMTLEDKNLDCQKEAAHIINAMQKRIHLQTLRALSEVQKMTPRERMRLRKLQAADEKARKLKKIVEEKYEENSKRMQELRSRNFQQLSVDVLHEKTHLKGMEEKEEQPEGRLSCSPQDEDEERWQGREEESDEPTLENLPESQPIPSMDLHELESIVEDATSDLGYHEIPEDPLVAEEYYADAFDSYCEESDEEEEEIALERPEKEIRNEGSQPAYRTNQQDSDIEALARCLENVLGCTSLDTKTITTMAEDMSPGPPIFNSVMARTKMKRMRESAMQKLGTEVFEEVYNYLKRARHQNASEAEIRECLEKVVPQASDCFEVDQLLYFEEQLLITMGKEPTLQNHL
Nature of the experiment: NEK11(h) Eurofins kinase panel. The note with it: Compound concentration 1.0 uM.

Experiment [14] concerns the target Calcium/calmodulin-dependent protein kinase type II subunit delta (Homo sapiens) (UniProt Q13557). Nature of the experiment: CaMKIIdelta(h) Eurofins kinase panel. The following applies: Compound concentration 1.0 uM.
Experiment [15] addresses Cyclin-dependent kinase 2/cyclin E (Homo sapiens) (UniProt P24864+P24941+O96020). Put plainly: CDK2/cyclinE(h) Eurofins kinase panel. In kind it is protein-complex assay. The following applies: Compound concentration 1.0 uM.
The target in experiment [16] is Serine/threonine-protein kinase 26 (Homo sapiens) (UniProt Q9P289). Put plainly: MST4(h) Eurofins kinase panel. The note with it: Compound concentration 1.0 uM.
The target in experiment [17] is Proto-oncogene tyrosine-protein kinase ROS (Homo sapiens) (UniProt P08922). Nature of the experiment: Ros(h) Eurofins kinase panel. The note with it: Compound concentration 1.0 uM.
Experiment [18] has as its target Protein-tyrosine kinase 2-beta (Homo sapiens) (UniProt Q14289). Put plainly: Pyk2(h) Eurofins kinase panel. The following applies: Compound concentration 1.0 uM.

Sequence of Mitogen-activated protein kinase 14 (Homo sapiens) (Q16539 whole entry): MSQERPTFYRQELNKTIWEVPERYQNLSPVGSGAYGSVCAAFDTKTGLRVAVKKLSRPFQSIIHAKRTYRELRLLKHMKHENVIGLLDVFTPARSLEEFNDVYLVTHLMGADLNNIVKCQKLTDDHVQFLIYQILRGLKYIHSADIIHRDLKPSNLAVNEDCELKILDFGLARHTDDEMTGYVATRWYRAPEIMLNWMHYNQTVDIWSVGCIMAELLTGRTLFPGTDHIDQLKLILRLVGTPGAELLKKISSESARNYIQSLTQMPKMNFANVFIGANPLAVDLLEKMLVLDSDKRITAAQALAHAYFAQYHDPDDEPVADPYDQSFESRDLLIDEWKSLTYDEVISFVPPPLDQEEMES
Sequence of eIF-2-alpha kinase GCN2 (Homo sapiens) (Q9P2K8 whole entry): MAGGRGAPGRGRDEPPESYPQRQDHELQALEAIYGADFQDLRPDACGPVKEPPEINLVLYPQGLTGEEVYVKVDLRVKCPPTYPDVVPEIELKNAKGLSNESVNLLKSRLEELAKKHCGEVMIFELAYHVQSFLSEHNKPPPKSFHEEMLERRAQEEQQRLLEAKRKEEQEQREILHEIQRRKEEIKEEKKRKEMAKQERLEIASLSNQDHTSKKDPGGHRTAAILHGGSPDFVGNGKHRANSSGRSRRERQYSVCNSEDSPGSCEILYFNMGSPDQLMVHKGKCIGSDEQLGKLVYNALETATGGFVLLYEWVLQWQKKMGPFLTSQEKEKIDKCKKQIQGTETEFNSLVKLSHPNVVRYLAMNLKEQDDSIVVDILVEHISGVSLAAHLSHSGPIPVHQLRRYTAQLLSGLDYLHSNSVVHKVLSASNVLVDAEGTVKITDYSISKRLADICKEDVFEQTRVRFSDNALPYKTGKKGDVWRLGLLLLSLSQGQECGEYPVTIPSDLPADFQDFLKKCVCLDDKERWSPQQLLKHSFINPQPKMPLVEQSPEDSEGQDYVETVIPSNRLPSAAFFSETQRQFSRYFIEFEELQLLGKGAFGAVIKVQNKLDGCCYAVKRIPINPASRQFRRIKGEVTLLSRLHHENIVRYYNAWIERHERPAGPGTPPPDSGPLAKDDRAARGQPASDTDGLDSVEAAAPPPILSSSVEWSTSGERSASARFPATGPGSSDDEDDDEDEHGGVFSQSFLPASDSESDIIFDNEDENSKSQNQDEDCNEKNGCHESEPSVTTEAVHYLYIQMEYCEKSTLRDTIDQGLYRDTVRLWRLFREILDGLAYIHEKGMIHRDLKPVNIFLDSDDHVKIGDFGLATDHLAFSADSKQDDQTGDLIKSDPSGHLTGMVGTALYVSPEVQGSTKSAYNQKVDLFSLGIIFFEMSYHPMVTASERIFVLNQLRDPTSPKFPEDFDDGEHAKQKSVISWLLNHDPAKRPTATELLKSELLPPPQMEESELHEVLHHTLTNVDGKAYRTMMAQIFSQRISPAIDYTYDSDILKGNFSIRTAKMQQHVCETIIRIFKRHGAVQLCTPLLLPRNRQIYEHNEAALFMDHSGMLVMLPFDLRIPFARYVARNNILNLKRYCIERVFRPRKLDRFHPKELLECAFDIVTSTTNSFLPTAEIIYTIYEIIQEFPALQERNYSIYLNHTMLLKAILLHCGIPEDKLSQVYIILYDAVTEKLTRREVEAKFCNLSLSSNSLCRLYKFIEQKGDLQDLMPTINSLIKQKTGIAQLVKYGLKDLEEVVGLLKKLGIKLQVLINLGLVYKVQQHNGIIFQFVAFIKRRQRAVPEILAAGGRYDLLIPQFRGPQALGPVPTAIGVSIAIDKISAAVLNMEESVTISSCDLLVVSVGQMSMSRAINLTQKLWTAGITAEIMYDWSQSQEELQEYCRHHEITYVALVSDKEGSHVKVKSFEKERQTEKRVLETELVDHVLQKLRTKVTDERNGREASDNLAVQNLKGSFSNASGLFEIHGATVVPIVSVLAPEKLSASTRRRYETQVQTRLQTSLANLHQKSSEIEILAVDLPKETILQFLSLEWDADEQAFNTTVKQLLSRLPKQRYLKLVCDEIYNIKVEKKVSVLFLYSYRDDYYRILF
Sequence of MAP/microtubule affinity-regulating kinase 3 (Homo sapiens) (P27448 whole entry, looked up): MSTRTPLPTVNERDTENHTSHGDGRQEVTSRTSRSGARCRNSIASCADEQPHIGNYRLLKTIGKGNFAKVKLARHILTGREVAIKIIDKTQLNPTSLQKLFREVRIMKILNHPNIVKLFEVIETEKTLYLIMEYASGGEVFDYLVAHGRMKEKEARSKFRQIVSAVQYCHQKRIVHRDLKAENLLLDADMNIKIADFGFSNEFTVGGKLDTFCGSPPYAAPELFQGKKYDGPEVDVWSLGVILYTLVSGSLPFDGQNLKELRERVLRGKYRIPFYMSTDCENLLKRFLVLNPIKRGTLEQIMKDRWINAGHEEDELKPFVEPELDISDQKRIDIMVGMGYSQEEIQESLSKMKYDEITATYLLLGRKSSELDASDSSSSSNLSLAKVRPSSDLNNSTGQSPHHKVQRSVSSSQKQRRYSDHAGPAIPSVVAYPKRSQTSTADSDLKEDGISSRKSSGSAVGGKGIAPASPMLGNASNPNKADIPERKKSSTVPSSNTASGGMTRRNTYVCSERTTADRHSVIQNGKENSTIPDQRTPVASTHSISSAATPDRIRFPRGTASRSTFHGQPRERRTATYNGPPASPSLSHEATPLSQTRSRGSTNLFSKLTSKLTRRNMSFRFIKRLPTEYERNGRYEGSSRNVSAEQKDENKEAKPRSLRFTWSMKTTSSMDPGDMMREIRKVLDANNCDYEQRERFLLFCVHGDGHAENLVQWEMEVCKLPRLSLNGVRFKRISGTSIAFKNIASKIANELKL
Sequence of Ribosomal protein S6 kinase beta-1 (Homo sapiens) (P23443 whole entry, looked up): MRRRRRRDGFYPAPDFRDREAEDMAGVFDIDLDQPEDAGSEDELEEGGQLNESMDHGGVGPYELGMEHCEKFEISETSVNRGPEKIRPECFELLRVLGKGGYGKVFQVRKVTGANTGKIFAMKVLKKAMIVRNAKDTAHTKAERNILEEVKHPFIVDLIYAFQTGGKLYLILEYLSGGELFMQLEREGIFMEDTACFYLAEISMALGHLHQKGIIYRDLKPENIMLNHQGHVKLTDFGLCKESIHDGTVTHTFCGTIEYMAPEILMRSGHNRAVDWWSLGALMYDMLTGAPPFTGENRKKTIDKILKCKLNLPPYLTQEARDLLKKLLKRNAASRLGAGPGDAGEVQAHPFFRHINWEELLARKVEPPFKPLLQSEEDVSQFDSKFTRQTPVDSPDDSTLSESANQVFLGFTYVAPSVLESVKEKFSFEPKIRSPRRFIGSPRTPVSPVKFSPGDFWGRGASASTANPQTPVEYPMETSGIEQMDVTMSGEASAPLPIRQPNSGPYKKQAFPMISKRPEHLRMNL

A word on the inhibition: it is the percentage by which the read-out fell short of the control. Regarding `CCc1ccccc1C(=O)Nc1n[nH]c2c(C)c(F)c(C3C(C#N)=C(C)N(C)C(C)=C3C#N)cc12` [BAY-3827], the % residual kinase activity was 127% in experiment [1]; 100% in experiment [2]; 100% in experiment [3]; 106% in experiment [5]; 106% in experiment [7]; 76% in experiment [8]. The % residual kinase activity in experiment [9] was 91%; in experiment [11] it was 70%; in experiment [12], 101%; in [13], 103%; in experiment [14], 75%; in experiment [15], 92%. Moreover, the % residual kinase activity in experiment [16] is 84%; in [17], 100%; in experiment [18] it was 76%. Also, the “Cell Proliferation IC50” value in experiment [4] amounted to 12.2 µM; in experiment [6], 0.28 µM. Also, the inhibition in experiment [10] was 67.4%.
